Assay results taken from article PMC9505425, “Targeting of the Mitochondrial TET1 Protein by Pyrrolo[3,2-b]pyrrole Chelators” (International Journal of Molecular Sciences, 2022).
Values joined by “and” are separate entries in the source; they are usually repeats but may differ in a detail not shown here. Equal values may be shown once. “Also recorded” adds a separate entry of the source.

Assays:
H-1299 cells = experiment: MTT cytotoxicity assay, H-1299; format: cell-based, human
Description: (§1) The effects of the tested compounds 1–6 on HF-P4, U-118 MG, H1299, BT-20, and Caov-3 cell lines were evaluated by the MTT assay during 48 h treatment (Table 2 and Tables S2–S31). In all tested compounds, we recognized a difference in cytotoxicity between healthy cells (HF-P4) and cancer cell lines (BT-20, Caov-3, and H-1299). […] In the case of ovarian cancer, the authors discovered oncogenic and poor prognosis roles of TET1 in epithelial ovarian carcinoma (EOC). TET1 is believed to demethylate the epigenome and activate numerous oncogenic pathways in EOC. The aforementioned study presents a new mechanism where TET1 contributes to tumor development through collaboration with CK2α [21]. The overexpression of the TET1 protein was also found in triple negative breast cancer and was associated with an activation of PI3K/mTOR pathway and decreased overall survival.
(§2) A human glioblastoma cell line (U118-MG) and a human non-small-cell lung carcinoma cell line (H1299) were used for the cytotoxicity assay (MTT). Both cell lines were generously supplied by Dr. M. Masařik, PhD, Department of Pathological physiology, Masaryk University, Czech Republic. U118-MG cells were cultivated under standard conditions in Dulbecco’s modified Eagle’s medium (ATCC, Manassas, VA, USA) supplemented with 10% FBS and streptomycin (100 μg/mL) at 37 °C at a 5% CO2 atmosphere. H1299 cells were cultivated under standard conditions in RPMI 1640 (BioTech, Prague, Czech Republic) medium supplemented with 10% FBS and streptomycin (100 μg/mL) at 37 °C at a 5% CO2 atmosphere.
(§3) For the cytotoxicity assay, we used the following cell lines: human glioblastoma cell line U118-MG, human mammary gland/breast cell line BT-20, human ovary adenocarcinoma cell line Caov-3, and non-small-cell lung carcinoma H-1299. As previously mentioned, these cell lines contain a high level of the TET1 protein, which corresponds to a lower overall survival. In addition to these cell cultures, we used the human dermal fibroblast cell line HF-P4 as a healthy control. Determination of cytotoxicity was performed using the MTT [3-(4,5-dimethylthiazol-2-yl)-2,5-diphenyltetrazolium bromide] colorimetric assay. Viable cells from each cell line were cultured in 96-well plates (VWR, Stříbrná Skalice, Czech Republic) at a density of 1.0 × 10^5 cells per well and allowed to grow for 24 h in 200 μL of recommended medium. After a 1-day incubation, the medium was replaced with solutions of compounds 1–6 at concentration ranges of 0.1–20 μM. Each concentration was measured four times within one test, and the entire test was repeated three times. Tested compounds 1–6 were dissolved in DMSO and then diluted with corresponding medium to a final volume of 200 μL (maximum 1% DMSO). After 48 h exposure, cells were treated with 175 μL of MTT solution (P-LAB, Prague, Czech Republic) for 2 h. In the next step, MTT solution was removed, and 125 μL of DMSO (Penta, Prague, Czech Republic) was added to solubilize dark crystals of formazan formed in intact cells, and absorbance was measured at 570 nm by the enzyme-linked immunoabsorbent assay reader Infinite® 200 PRO (Tecan, Männedorf, Switzerland). The final DMSO concentration was smaller than 1% (v/v). The absorbance of untreated cells was considered 100%, and IC50 values were calculated by the GraphPad Prism 8 software. As a parameter for cytotoxicity, we used a concentration that inhibits 50% of cell growth (IC50).

U-118 MG cells = experiment: MTT cytotoxicity assay, U-118 MG; format: cell-based, human; details: 48 h
Description: as §1, §2, §3

TET1 protein = biological target: T1, TET1 protein (Homo sapiens, UniProt Q8NFU7); experiment: Fluorometric TET hydroxylase activity assay with purified TET1 enzyme; format: biochemical; details: screened at 10^−7 to 10^−4 M
T1 construct: purchased Active Motif, Carlsbad, CA, USA
Description: Figure 4 and Table S1 show the dependence of TET1 activity on the concentration of compound 1.
Compounds 1–6 were tested for the inhibition of the total 5mC hydroxylase TET enzyme using a purified TET1 enzyme (Active Motif, Carlsbad, CA, USA) by a fluorometric TET hydroxylase activity quantification kit (Abcam, Cambridge, UK). A total of 25 µg of purified TET1 protein was diluted in a TET assay buffer in a 5 mL volumetric flask, containing α-ketoglutarate and ferric sulfate. The concentrations of ascorbic acid, α-ketoglutarate, and ferric sulfate in the diluted TET assay buffer were 2, 1, and 0.1 mM, respectively. Tested compounds were dissolved in DMSO to obtain a concentration of 0.01 M. DMSO solutions of compounds 1–6 were then diluted with a TET assay buffer to concentrations of 10^−6, 10^−5, 10^−4, and 10^−3 M (in 10% of DMSO). Subsequently, 50 μL of the final TET assay buffer containing the TET1 protein and 5 μL of chelator’s solution was applied to each sample well. In control wells (TET1 without inhibitors), 5 μL of the final TET assay buffer with 10% DMSO was used instead of chelator’s solution. The final concentrations of chelators in a well plate were 10^−7, 10^−6, 10^−5, 10^−4, and 0 M with less than 1% of final concentration of DMSO. The following steps were performed according to manufacturer’s protocol. The TET1 protein converts methylated substrate to hydroxymethylated products, which could be recognized by a specific antibody. We determined the residual activity of the TET1 protein by measuring a fluorescence intensity on an enzyme-linked immunoabsorbent assay reader (ELISA), Infinite® 200 PRO (Tecan, Switzerland, Switzerland), at an excitation wavelength at 530 nm and an emission wavelength at 590 nm. Each concentration was measured twice within one test, and each test was repeated three times. IC50 values of active inhibitors were determined using GraphPad Prism 8 via nonlinear regression.

T1 sequence (Q8NFU7 whole entry): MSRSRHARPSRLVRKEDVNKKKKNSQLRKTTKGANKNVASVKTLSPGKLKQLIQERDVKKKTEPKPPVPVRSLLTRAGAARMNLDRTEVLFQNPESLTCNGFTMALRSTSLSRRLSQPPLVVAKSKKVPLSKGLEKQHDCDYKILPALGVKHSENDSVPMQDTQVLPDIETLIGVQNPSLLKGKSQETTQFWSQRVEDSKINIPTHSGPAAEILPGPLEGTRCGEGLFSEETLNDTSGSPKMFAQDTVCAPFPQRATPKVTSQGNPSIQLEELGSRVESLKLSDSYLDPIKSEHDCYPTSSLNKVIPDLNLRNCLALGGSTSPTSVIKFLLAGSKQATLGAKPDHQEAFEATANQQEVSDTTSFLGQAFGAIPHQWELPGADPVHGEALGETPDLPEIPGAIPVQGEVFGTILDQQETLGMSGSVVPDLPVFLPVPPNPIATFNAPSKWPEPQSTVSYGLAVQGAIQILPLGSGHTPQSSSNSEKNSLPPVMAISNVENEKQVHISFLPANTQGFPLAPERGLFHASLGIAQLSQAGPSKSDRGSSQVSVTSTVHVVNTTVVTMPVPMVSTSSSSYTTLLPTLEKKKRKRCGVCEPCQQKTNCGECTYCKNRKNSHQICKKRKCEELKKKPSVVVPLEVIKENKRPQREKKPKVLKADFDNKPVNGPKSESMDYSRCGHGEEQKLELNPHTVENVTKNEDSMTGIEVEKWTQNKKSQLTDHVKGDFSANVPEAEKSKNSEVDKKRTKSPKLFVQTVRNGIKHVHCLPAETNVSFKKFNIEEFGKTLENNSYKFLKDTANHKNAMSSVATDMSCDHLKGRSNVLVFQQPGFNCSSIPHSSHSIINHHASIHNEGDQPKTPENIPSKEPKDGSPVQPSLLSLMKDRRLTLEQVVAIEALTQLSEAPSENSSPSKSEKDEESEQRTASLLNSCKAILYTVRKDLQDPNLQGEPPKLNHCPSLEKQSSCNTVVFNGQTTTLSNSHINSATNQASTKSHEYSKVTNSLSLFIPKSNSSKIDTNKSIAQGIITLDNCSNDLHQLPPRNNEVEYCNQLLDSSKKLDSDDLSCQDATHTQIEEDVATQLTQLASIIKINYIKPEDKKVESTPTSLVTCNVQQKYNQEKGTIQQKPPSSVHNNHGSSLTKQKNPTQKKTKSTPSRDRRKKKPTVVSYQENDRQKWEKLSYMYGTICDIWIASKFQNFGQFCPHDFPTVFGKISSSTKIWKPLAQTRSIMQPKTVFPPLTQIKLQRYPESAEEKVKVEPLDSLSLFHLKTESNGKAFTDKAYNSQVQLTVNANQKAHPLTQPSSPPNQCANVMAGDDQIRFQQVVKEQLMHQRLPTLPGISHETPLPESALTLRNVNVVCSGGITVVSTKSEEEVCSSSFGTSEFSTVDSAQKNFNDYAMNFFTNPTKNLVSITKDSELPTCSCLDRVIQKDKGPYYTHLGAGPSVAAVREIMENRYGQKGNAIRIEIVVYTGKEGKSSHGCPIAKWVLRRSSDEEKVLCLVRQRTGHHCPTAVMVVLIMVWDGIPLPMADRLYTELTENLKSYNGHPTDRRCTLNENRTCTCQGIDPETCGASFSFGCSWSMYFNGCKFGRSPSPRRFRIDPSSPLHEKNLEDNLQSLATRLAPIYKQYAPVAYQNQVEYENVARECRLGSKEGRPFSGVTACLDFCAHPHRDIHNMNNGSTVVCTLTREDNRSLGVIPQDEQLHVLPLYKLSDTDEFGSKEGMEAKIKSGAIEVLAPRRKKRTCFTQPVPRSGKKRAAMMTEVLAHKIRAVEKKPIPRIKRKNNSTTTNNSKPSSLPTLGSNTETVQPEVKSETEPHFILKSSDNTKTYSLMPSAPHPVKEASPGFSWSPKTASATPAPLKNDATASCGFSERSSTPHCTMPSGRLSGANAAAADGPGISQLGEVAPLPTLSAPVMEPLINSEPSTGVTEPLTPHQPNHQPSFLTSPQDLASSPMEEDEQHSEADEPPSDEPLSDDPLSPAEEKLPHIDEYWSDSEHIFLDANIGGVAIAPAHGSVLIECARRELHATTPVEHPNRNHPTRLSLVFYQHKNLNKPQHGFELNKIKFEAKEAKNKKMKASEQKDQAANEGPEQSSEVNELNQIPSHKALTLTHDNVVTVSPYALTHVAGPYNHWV

## Cc1ccc(-n2c(-c3ccc(C(=O)N/N=C/c4ccc(O)cc4O)cc3)cc3c2cc(-c2ccc(C(=O)N/N=C/c4ccc(O)cc4O)cc2)n3-c2ccc(C)cc2)cc1 [Compound 4]
H-1299 cells; H-1299, 100 nM, 48 h, repeats, 0.1 µM
  Cell viability %: 109.0835% and 92.98%
H-1299 cells; H-1299, 500 nM, 48 h, repeats, 0.5 µM
  Cell viability %: 110.8313% and 69.08% and 86.72%
H-1299 cells; H-1299, 750 nM, 48 h, repeats, 0.75 µM
  Cell viability %: 86.2% and 81.89%
H-1299 cells; H-1299, 1 uM, 48 h, repeats, 1 µM
  Cell viability %: 88.02% and 73.99% and 66.83%
H-1299 cells; H-1299, 2.5 uM, 48 h, repeats, 2.5 µM
  Cell viability %: 77.91% and 68.92%
H-1299 cells; H-1299, 5 uM, 48 h, repeats, 5 µM
  Cell viability %: 68.74% and 52.75%
H-1299 cells; H-1299, 7.5 uM, 48 h, repeats, 7.5 µM
  Cell viability %: 38.28% and 33.07%
H-1299 cells; H-1299, 10 uM, 48 h, repeats, 10 µM
  Cell viability %: 21.64% and 18.84%
H-1299 cells; H-1299, 15 uM, 48 h, repeats, 15 µM
  Cell viability %: 10.46% and 11.78%
H-1299 cells; H-1299, 20 uM, 48 h, repeats, 20 µM
  Cell viability %: 7.89% and 6.315%
H-1299 cells; Homo sapiens, NCI-H1299, 48 h, H-1299, 100 nM, repeats, read-out: Cell viability %
  viability at 0.1 µM: 110%
H-1299 cells; Homo sapiens, NCI-H1299, 48 h, H-1299, 750 nM, repeats, read-out: Cell viability %
  viability at 0.75 µM: 86.1%
H-1299 cells; Homo sapiens, NCI-H1299, 48 h, H-1299, 2.5 uM, repeats, read-out: Cell viability %
  viability at 2.5 µM: 77.6%
H-1299 cells; Homo sapiens, NCI-H1299, 48 h, H-1299, 5 uM, repeats, read-out: Cell viability %
  viability at 5 µM: 66.7%
H-1299 cells; Homo sapiens, NCI-H1299, 48 h, H-1299, 7.5 uM, repeats, read-out: Cell viability %
  viability at 7.5 µM: 35.8%
H-1299 cells; Homo sapiens, NCI-H1299, 48 h, H-1299, 10 uM, repeats, read-out: Cell viability %
  viability at 10 µM: 14.8%
H-1299 cells; Homo sapiens, NCI-H1299, 48 h, H-1299, 15 uM, repeats, read-out: Cell viability %
  viability at 15 µM: 11.1%
H-1299 cells; Homo sapiens, NCI-H1299, 48 h, H-1299, 20 uM, repeats, read-out: Cell viability %
  viability at 20 µM: 7.35%
H-1299 cells; Homo sapiens, NCI-H1299, MTT, 48 h
  IC50: 5.75 µM
U-118 MG cells; Homo sapiens, U-118-MG, U-118 MG, 100 nM, repeats, read-out: Cell viability %
  viability at 0.1 µM: 89.7%
U-118 MG cells; Homo sapiens, U-118-MG, U-118 MG, 500 nM, repeats, read-out: Cell viability %
  viability at 0.5 µM: 81.5%
U-118 MG cells; Homo sapiens, U-118-MG, U-118 MG, 750 nM, repeats, read-out: Cell viability %
  viability at 0.75 µM: 88.6%
U-118 MG cells; Homo sapiens, U-118-MG, U-118 MG, 1 uM, repeats, read-out: Cell viability %
  viability at 1 µM: 88.8%
U-118 MG cells; Homo sapiens, U-118-MG, U-118 MG, 2.5 uM, repeats, read-out: Cell viability %
  viability at 2.5 µM: 78.8%
U-118 MG cells; Homo sapiens, U-118-MG, U-118 MG, 5 uM, repeats, read-out: Cell viability %
  viability at 5 µM: 73.7%
U-118 MG cells; Homo sapiens, U-118-MG, U-118 MG, 7.5 uM, repeats, read-out: Cell viability %
  viability at 7.5 µM: 24.8%
U-118 MG cells; Homo sapiens, U-118-MG, U-118 MG, 10 uM, repeats, read-out: Cell viability %
  viability at 10 µM: 30%
U-118 MG cells; Homo sapiens, U-118-MG, U-118 MG, 15 uM, repeats, read-out: Cell viability %
  viability at 15 µM: 21.2%
U-118 MG cells; Homo sapiens, U-118-MG, U-118 MG, 20 uM, repeats, read-out: Cell viability %
  viability at 20 µM: 15.2%
U-118 MG cells; Homo sapiens, U-118-MG, MTT
  IC50: 6.81 µM
U-118 MG cells; U-118 MG, 100 nM, repeats, 0.1 µM
  Cell viability %: 88.01% and 106.1964%
U-118 MG cells; U-118 MG, 500 nM, repeats, 0.5 µM
  Cell viability %: 94.35% and 91.8%
U-118 MG cells; U-118 MG, 750 nM, repeats, 0.75 µM
  Cell viability %: 93.98% and 97.45%
U-118 MG cells; U-118 MG, 1 uM, repeats
  Cell viability %: 94.85% and 87.1%
U-118 MG cells; U-118 MG, 2.5 uM, repeats
  Cell viability %: 87.61% and 83.16%
U-118 MG cells; U-118 MG, 5 uM, repeats
  Cell viability %: 72.71% and 76.46%
U-118 MG cells; U-118 MG, 7.5 uM, repeats
  Cell viability %: 24.19% and 24.17%
U-118 MG cells; U-118 MG, 10 uM, repeats
  Cell viability %: 29.03% and 31.26%
U-118 MG cells; U-118 MG, 15 uM, repeats
  Cell viability %: 21.17% and 19.82%
U-118 MG cells; U-118 MG, 20 uM, repeats
  Cell viability %: 15.6756% and 12.31%
TET1 protein
  inhibitory activity towards TET1: no inhibitory effect; also recorded: no significant inhibition
